Results reported in patent publication US20250140406A1, “CLASSIFYING TUMORS AND PREDICTING RESPONSIVENESS” (Oncocyte Corporation, priority 2022, published 2025).
Where two headings read alike, the source gives them in different places.

What was measured:
[1] = test system: cancer cell lines classified IM, MSL, M; test: PRISM screen compound sensitivity correlated with IM, MSL and M subtype of cell lines (101 gene signature); assay type: cell-based
[2] = test system: cancer cell lines, DetermaIO classes; test: Association of PRISM compound sensitivity with DetermaIO (DTIO) cell line classes; assay type: cell-based
[3] = subtype (IM, MSL or M) with which compound sensitivity is negatively correlated, training cell set (371 cell lines), 101 gene signature
[4] = association of compound sensitivity with DetermaIO classes, test data set
[5] = association of compound sensitivity with DetermaIO classes, training data set
[6] = subtype (IM, MSL or M) with which PRISM compound sensitivity is negatively correlated, training cell set, 101 gene signature
[7] = subtype (IM, MSL or M) assigned to the compound by negative correlation of PRISM sensitivity with subtype, training cell set (371 cell lines), 101 gene signature

CN1C(=O)C(N2CCCCC2)S/C1=C\C(=O)O (stereo not shown) [ozolinone]
IM Corr test ([1]; correlation of PRISM compound sensitivity with IM subtype correlation, test cell set (188 cell lines)): −0.1322 | M Corr test ([1]; correlation of PRISM compound sensitivity with M subtype correlation, test cell set (188 cell lines)): −0.01029 | MSL Corr test ([1]; correlation of PRISM compound sensitivity with MSL subtype correlation, test cell set (188 cell lines)): −0.06039 | TNBCType train [1, 3]: MSL | DTIO Corr test ([2]; correlation of PRISM compound sensitivity with DTIO, test cell set): −0.09683 | DTIO Corr train ([2]; correlation of PRISM compound sensitivity with DTIO, training cell set): 0.04306

Cc1occc(=O)c1[O-].Cc1occc(=O)c1[O-].[O]=[V+2] [K16180792]
DTIO Corr test [2, 4]: 0.09031 | DTIO Corr train [2, 5]: 0.1485

Cc1cc(C2CCCCC2)n(O)c(=O)c1 [K13044802]
DTIO Corr test [2, 4]: −0.06749 | DTIO Corr train [2, 5]: −0.1574

N=C(N)c1ccc(OCCCCCOc2ccc(C(=N)N)cc2)cc1 [K13183738]
DTIO Corr test [2, 4]: 0.14 | DTIO Corr train [2, 5]: 0.2157

NC(=O)c1cccc2cn(-c3ccc([C@@H]4CCCNC4)cc3)nc12 [K54955827]
DTIO Corr test [2, 4]: −0.03477 | DTIO Corr train [2, 5]: 0.03577

CNC(=O)c1ccccc1Sc1ccc2c(/C=C/c3ccccn3)n[nH]c2c1 [K29905972]
DTIO Corr test [2, 4]: 0.004812 | DTIO Corr train [2, 5]: 0.0816

O=Nc1ccc(O)c2ncccc12 [K13169950]
DTIO Corr test [2, 4]: −0.00012 | DTIO Corr train [2, 5]: 0.09356

CC(C)(C)c1nc(-c2cccc(NS(=O)(=O)c3c(F)cccc3F)c2F)c(-c2ccnc(N)n2)s1 [K09951645]
DTIO Corr test [2, 4]: 0.1439 | DTIO Corr train [2, 5]: 0.04313

COC(=O)N[C@@H](C)CNc1nccc(-c2cn(C(C)C)nc2-c2cc(Cl)cc(NS(C)(=O)=O)c2F)n1 [A56085258]
DTIO Corr test [2, 4]: 0.1442 | DTIO Corr train [2, 5]: 0.09535

Cc1ccc(NC(=O)c2ccc(CN3CC[C@H](N(C)C)C3)c(C(F)(F)F)c2)cc1Nc1nccc(-c2cncnc2)n1 [A75975749]
DTIO Corr test [2, 4]: 0.1658 | DTIO Corr train [2, 5]: 0.1191

C=CC(=O)Nc1cc(Nc2nccc(-c3cn(C)c4ccccc34)n2)c(OC)cc1N(C)CCN(C)C [K42805893]
DTIO Corr test [2, 4]: 0.0753 | DTIO Corr train [2, 5]: −0.06781

COc1ccc(C2=N[C@@H](c3ccc(Cl)cc3)[C@@H](c3ccc(Cl)cc3)N2C(=O)N2CCNC(=O)C2)c(OC(C)C)c1 [A12230535]
DTIO Corr test [2, 4]: 0.1503 | DTIO Corr train [2, 5]: 0.1606

O=c1cc(-c2ccccc2)oc2cc(O)c(O)c(O)c12 [K72327355]
DTIO Corr test [2, 4]: −0.04244 | DTIO Corr train [2, 5]: −0.1442

C=C1/C(=C\C=C2/CCC[C@]3(C)[C@@H]([C@H](C)OCCC(C)(C)O)CC[C@@H]23)C[C@@H](O)C[C@@H]1O [K81332461]
DTIO Corr test [2, 4]: −0.00506 | DTIO Corr train [2, 5]: −0.07504

C[C@@H]1COC(Nc2ccc3ncnc(Nc4ccc(OCc5nccs5)c(Cl)c4)c3c2)=N1 [K46386702]
DTIO Corr test [2, 4]: −0.03109 | DTIO Corr train [2, 5]: −0.05992

Cc1cc(CN2CCN(c3c(Br)cnc4nc(-c5ccc(N6CCN(C)CC6)cc5)[nH]c34)CC2)no1 [K03289018]
DTIO Corr test [2, 4]: −0.1396 | DTIO Corr train [2, 5]: −0.02552

OCCn1cc(-c2ccc3c(c2)CC/C3=N\O)c(-c2ccncc2)n1 [K67578145]
DTIO Corr test [2, 4]: 0.1581 | DTIO Corr train [2, 5]: 0.1101

CS(=O)(=O)CCNCc1ccc(-c2ccc3ncnc(Nc4ccc(OCc5cccc(F)c5)c(Cl)c4)c3c2)o1 [K19687926]
DTIO Corr test [2, 4]: −0.0302 | DTIO Corr train [2, 5]: −0.08369

Cc1ccc(NC(=O)c2cccc(C(C)(C)C#N)c2)cc1Nc1ccc2ncn(C)c(=O)c2c1 [K05804044]
DTIO Corr test [2, 4]: 0.3247 | DTIO Corr train [2, 5]: 0.1908

COc1cc2nccc(Oc3ccc(NC(=O)Nc4ccc(F)cc4F)c(F)c3)c2cc1OC [K47150025]
DTIO Corr test [2, 4]: 0.03732 | DTIO Corr train [2, 5]: 0.02512

Cc1nccn1CC1CCc2c(c3ccccc3n2C)C1=O (stereo not shown) [A19736161]
DTIO Corr test [2, 4]: −0.1124 | DTIO Corr train [2, 5]: −0.07634

Cn1c(Nc2ccc(C(F)(F)F)cc2)nc2cc(Oc3ccnc(-c4ncc(C(F)(F)F)[nH]4)c3)ccc21 [K93123848]
DTIO Corr test [2, 4]: 0.1916 | DTIO Corr train [2, 5]: 0.1011

CC(C)NC(=N)NC(=N)Nc1ccc(Cl)c(Cl)c1 [chlorproguanil]
TNBCType train [1, 6]: MSL

COc1cc([C@@H]2c3cc4c(cc3[C@@H](O[C@@H]3O[C@@H]5CO[C@@H](C)O[C@H]5[C@H](O)[C@H]3O)[C@H]3COC(=O)[C@H]23)OCO4)cc(OC)c1OP(=O)(O)O [etoposide-phosphate]
TNBCType train [1, 7]: MSL

NS(=O)(=O)c1cc(Cl)c(Cl)c(S(N)(=O)=O)c1 [diclofenamide]
TNBCType train [1, 7]: MSL

CC(=O)OCC1=C(C(=O)O)N2C(=O)[C@@H](NC(=O)Cc3cccs3)[C@H]2SC1 [cephalothin]
TNBCType train [1, 6]: MSL

C[C@]12CC[C@H]3[C@@H](CC[C@@]45O[C@@H]4C(O)=C(C#N)C[C@]35C)[C@@H]1CC[C@@H]2O [trilostane]
TNBCType train [1, 3]: MSL

N#Cc1cc(-c2n[nH]c(-c3ccncc3)n2)ccn1 [topiroxostat]
TNBCType train [1, 7]: MSL

CCn1nc(C)c2c1C(c1ccccc1)=NCC(=O)N2 [ripazepam]
TNBCType train [1, 7]: MSL

Cc1cc(Nc2cc(N3CCN(C)CC3)nc(/C=C/c3ccccc3)n2)n[nH]1 [ENMD-2076]
TNBCType train [1, 7]: MSL

CC[C@@H]1/C=C(\C)C[C@H](C)C[C@H](OC)[C@H]2O[C@@](O)(C(=O)C(=O)N3CCCC[C@H]3C(=O)O[C@H](/C(C)=C/[C@@H]3CC[C@H](Cl)[C@H](OC)C3)[C@H](C)[C@@H](O)CC1=O)[C@H](C)C[C@@H]2OC [pimecrolimus]
TNBCType train [1, 7]: MSL

O=C(O)c1ccccc1OP(=O)(O)O [fosfosal]
TNBCType train [1, 6]: MSL

CNC(=O)c1cccc2cc(Oc3ccnc4cc(OCC5(N)CC5)c(OC)cc34)ccc12 [lucitanib]
TNBCType train [1, 6]: MSL

N=C(N)N1CCc2ccccc2C1 [debrisoquin]
TNBCType train [1, 7]: MSL

CC(C)NCC(O)COc1cccc2[nH]c3ccccc3c12 (stereo not shown) [carazolol]
TNBCType train [1, 3]: MSL

O=C1[C@H](Cc2ccc(O)cc2)N2C(=O)CCN(C(=O)NCc3ccccc3)[C@H]2CN1Cc1cccc2ccccc12 [K94455792]
DTIO Corr test [2, 4]: 0.1635 | DTIO Corr train [2, 5]: 0.1783

N[C@H](C(=O)O)[C@H](O)c1ccc(O)c(O)c1 [droxidopa]
TNBCType train [1, 6]: MSL

CC(C)N(CCCCOCC(=O)NS(C)(=O)=O)c1cnc(-c2ccccc2)c(-c2ccccc2)n1 [selexipag]
TNBCType train [1, 6]: MSL

Nc1nccc2c1ncn2C1C=C(CO)C(O)C1O (stereo not shown) [K77791657]
DTIO Corr test [2, 4]: −0.05245 | DTIO Corr train [2, 5]: −0.1309

COc1cccc(C(=O)CCN[C@@H](C)[C@H](O)c2ccccc2)c1 [oxyfedrine]
TNBCType train [1, 7]: MSL

O=C(c1cc(Cc2n[nH]c(=O)c3ccccc23)ccc1F)N1CCN(C(=O)C2CC2)CC1 [K02113016]
DTIO Corr test [2, 4]: 0.06404 | DTIO Corr train [2, 5]: 0.02661

CC1=C(CC(=O)O)c2cc(F)ccc2/C1=C\c1ccc(S(C)(=O)=O)cc1 [exisulind]
TNBCType train [1, 6]: MSL

COc1cc(N2CCC(N3CCN(C)CC3)CC2)ccc1Nc1ncc(Cl)c(Nc2ccccc2P(C)(C)=O)n1 [K56981171]
DTIO Corr test [2, 4]: 0.04024 | DTIO Corr train [2, 5]: −0.1728

CC(C)(CO)CCCCCCC(C)(C)CO [gemcadiol]
TNBCType train [1, 6]: MSL

COCC(O)Cn1ccnc1[N+](=O)[O-] (stereo not shown) [misonidazole]
TNBCType train [1]: MSL

Cc1ccc2c(c1)[C@]13CCCC[C@@H]1[C@H](C2)N(C)CC3 [dimemorfan]
TNBCType train [1, 6]: MSL

CC[C@]1(O)C[C@@H]2CN(CCc3c([nH]c4ccccc34)[C@@](C(=O)OC)(c3cc4c(cc3OC)N(C)[C@H]3[C@@](O)(C(=O)OC)[C@H](OC(C)=O)[C@]5(CC)C=CCN6CC[C@]43[C@@H]65)C2)C1 [vinblastine]
TNBCType train [1, 3]: MSL

CCN1CCC[C@H]1CNC(=O)c1cc(S(N)(=O)=O)ccc1OC [levosulpiride]
TNBCType train [1, 6]: MSL

N#Cc1c(Oc2ccc(F)c(NC(=O)Cc3cccc(C(F)(F)F)c3)c2)ccc2nc(NC(=O)C3CC3)sc12 [K31866293]
DTIO Corr test [2, 4]: 0.2089 | DTIO Corr train [2, 5]: 0.08489

CC[C@@]1(O)C(=O)OCc2c1cc1n(c2=O)Cc2cc3c([N+](=O)[O-])cccc3nc2-1 [K79821389]
DTIO Corr test [2, 4]: −0.06417 | DTIO Corr train [2, 5]: −0.1178

CC1(C)S[C@@H]2[C@H](NC(=O)[C@H](N)c3ccccc3)C(=O)N2[C@H]1C(=O)O [ampicillin]
TNBCType train [1, 7]: MSL

COc1cc2nc(N3CCCN(C)CC3)nc(NC3CCN(Cc4ccccc4)CC3)c2cc1OC [K26818574]
DTIO Corr test [2, 4]: 0.2463 | DTIO Corr train [2, 5]: 0.08377
